Patent US20230145200A1, “COMPOSITIONS AND METHODS OF TREATING CANCER” (Tillead Therapeutics, Inc., priority 2020, published 2023)
Changes are numbered by the printed parent chain. “Also recorded” adds a separate entry of the source. One block for each compound: values may come before it.

How the values were obtained:
[1] = biological target: T1, caspase-3 (Homo sapiens, UniProt P42574); experiment: Caspase activity in MiaPaca-2 tumor cells (FIG. 10c); format: cell-based; set-up: endogenous in cells; host or cells: MiaPaca-2 cells
T1 sequence (P42574 29-175 limits assumed): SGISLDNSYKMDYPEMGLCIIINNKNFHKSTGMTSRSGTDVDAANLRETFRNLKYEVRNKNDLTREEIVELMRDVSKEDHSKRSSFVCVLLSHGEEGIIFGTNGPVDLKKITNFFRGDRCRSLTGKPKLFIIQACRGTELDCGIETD
T1 sequence (P42574 176-277 limits assumed): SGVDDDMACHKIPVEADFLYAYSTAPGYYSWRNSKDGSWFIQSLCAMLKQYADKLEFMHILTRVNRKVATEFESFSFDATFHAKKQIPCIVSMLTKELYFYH

[2] = biological target: T1, caspase-3; experiment: Caspase activity in A549 tumor cells (FIG. 10b); format: cell-based; set-up: endogenous in cells; host or cells: A549 cells
[3] = tested on: B16 model; experiment: In vivo tumor growth study, B16 model; set-up: species or system mice; settings: emricasan amine salt intratumorally 5 mpk and 10 mpk q.d 4 days, FIG. 19
Description: (§1) In vivo studies: Female C57BL6 and Balb/C mice of 9 weeks of age were obtained from the Jackson lab, ME. Passages were made twice weekly with a 1:2 split and cultured in DMEM:F12 supplemented with 10% FBS (HyClone, Ft. Collins, Colo.). For inoculation, approximately 5-8×10^5 cells were suspended in 100 μL of PBS (Becton Dickinson Labware, Bedford, Mass.) and injected subcutaneously into the flanks of mice. Most mice developed palpable tumors within 5 days of inoculation. Tumor bearing mice are grouped in cohorts of 5-8 mice for dosing studies. […] Baseline tumor volumes were established and dosing initiation began on day 0. Emricasan was administered as a salt intratumorally or interperitoneally for 3-4 days. If docetaxel was used, it was administered interperitoneally or intravenously in Tween80/PEG300 or Tween80/ethanol with PBS the day before emricasan was given. Emricasan and docetaxel were co-formulated in Tween80/PEG300 and co-administered intratumorally after diluting with PBS. Tumor volumes were measured twice a week using standard calipers and calculated as […], with the length and width defined as the long and short axes, respectively. Measurement of body weight was initiated on day 0 and repeated once a week.

[4] = tested on: CT26 model; experiment: In vivo tumor growth study, CT26 model; set-up: species or system mice; settings: emricasan amine salt intratumorally 5 mpk and 10 mpk q.d 4 days, FIG. 20
Description: as §1

[5] = tested on: MC38 model; experiment: In vivo tumor growth study, MC38 model; set-up: species or system mice
Description: In vivo studies: Female C57BL6 and Balb/C mice of 9 weeks of age were obtained from the Jackson lab, ME. Passages were made twice weekly with a 1:2 split and cultured in DMEM:F12 supplemented with 10% FBS (HyClone, Ft. Collins, Colo.). For inoculation, approximately 5-8×10^5 cells were suspended in 100 μL of PBS (Becton Dickinson Labware, Bedford, Mass.) and injected subcutaneously into the flanks of mice. Most mice developed palpable tumors within 5 days of inoculation. Tumor bearing mice are grouped in cohorts of 5-8 mice for dosing studies. Mice with tumor sizes of 50-100 mm^3 are randomized between treatment groups. Baseline tumor volumes were established and dosing initiation began on day 0. Emricasan was administered as a salt intratumorally or interperitoneally for 3-4 days. If docetaxel was used, it was administered interperitoneally or intravenously in Tween80/PEG300 or Tween80/ethanol with PBS the day before emricasan was given. Emricasan and docetaxel were co-formulated in Tween80/PEG300 and co-administered intratumorally after diluting with PBS. Tumor volumes were measured twice a week using standard calipers and calculated as […], with the length and width defined as the long and short axes, respectively. Measurement of body weight was initiated on day 0 and repeated once a week.

[6] = biological target: T2, caspase-3 (Mus musculus, UniProt P70677); experiment: Caspase-3 activity assay in MC38 cells; format: cell-based, murine
T2 construct: the cells were lysed in 25 μL 1× lysis buffer on ice for 20 min; endogenous in cells; host or cells: MC38 cells (lysate)
T2 sequence (P70677 29-175 limits assumed): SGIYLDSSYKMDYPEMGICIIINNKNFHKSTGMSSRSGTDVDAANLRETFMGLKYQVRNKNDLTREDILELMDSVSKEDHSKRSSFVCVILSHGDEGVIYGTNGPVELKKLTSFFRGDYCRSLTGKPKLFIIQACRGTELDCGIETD
T2 sequence (P70677 176-277 limits assumed): T1 sequence (P42574 176-277 limits assumed) with V3T, D5E, D6E, H10Q, A46S, Q50L, D53H, F77L, A79S
Description: Caspase-3 activity assay: Caspase-3 activity was measured by using Sigma Caspase 3 Assay Kit, Fluorimetric. In brief, MC38 cells were cultured in 96-well plates and treated with Docetaxel and Docetaxel/Emricasan combination, respectively. Dose-dependent effect of Docetaxel on caspase-3 activity was tested in MC38 cells; Docetaxel/Emricasan combination treatment was applied to reverse Docetaxel induced caspase-3 activity. After 24 h drug treatment, the cells were lysed in 25 μL 1× lysis buffer on ice for 20 min, then added 200 μL of 16.7 μM Ac-DEVD-AMC substrate solution to incubate at RT in the dark for 30 min. The fluorescent signals were read in BioTek Synergy 4 plate reader at excitation 360 nm and emission 460 nm.

[7] = tested on: IFNβ; experiment: Interferon-beta (IFNβ) ELISA assay of MC38 cell culture supernatants; format: cell-based, murine; settings: 24 hours
Description: The concentration of IFNβ was measured with VeriKine-HS Interferon Beta Serum ELISA Kit (PBL Assay Science) in accordance with the manufacturer's instruction. The data of absorbance was recorded at 450 nm by using BioTek synergy 4 plate reader and analyzed with GraphPad software.

[8] = tested on: PD-L1; experiment: PD-L1 expression flow cytometry assay; format: cell-based, murine; settings: MC38 cells; 1 μM Docetaxel, 10 μM Emricasan, or the combination; 24 h; FIG. 21
Description: PD-L1 expression flow cytometry assay: Cell surface PD-L1 expression was detected by flow cytometry assay. The cells were plated in 24-well plates and treated with 1 μM Docetaxel, 10 μM Emricasan, and the combination of the two drugs. Untreated cells were used as a control. After 24 h of treatment, the cells were dissociated and harvested for PD-L1 staining with BioLegend PE anti-mouse PD-L1 antibody (MIH7 clone). The PD-L1 expression was measured in BD Accuri C6 Plus flow cytometer, The mean density of PD-L1 was analyzed by FlowJo V10 software.

[9] = tested on: MC38 cells; experiment: Apoptosis flow cytometry assay (FITC Annexin V/PI); format: cell-based, murine; settings: for apoptosis induction in MC38 cells: agent alone: Venetoclax 3 μM, Doxorubicin 1 μM, Docetaxel 10 μM, Simvastatin 10 μM
Description: Cell lines and drugs: MC38 and B16 cell lines were derived from C57BL6 murine colon adenocarcinoma and melanoma cells, respectively. The cells were maintained in Dulbecco's modified Eagle's medium (DMEM) supplemented with 10% heat-inactivated fetal bovine serum (FBS) and 100 U/mL penicillin/streptomycin. The CT26 cells were derived from murine colon adenocarcinoma cells and cultured in RPMI1640 with 10% FBS and 2 mM GlutaMAX.
Apoptosis flow cytometry assay: FITC Annexin V Apoptosis Detection Kit with PI (BioLegend) was used for apoptosis detection. The MC38 cells were seeded in 24-well plate with 1×10^5 cells/well and cultured overnight. […] After 24 hours treatment, cells were collected and dissociated as single cell suspensions for Annexin V/PI staining. In briefing, cells were washed twice with cold BioLegend's Cell Staining Buffer, then resuspended in […] Annexin V Binding Buffer. […] FITC Annex V and […] Propidium Iodide (PI) Solution were added in each sample. The samples were gently vortexed and incubated for 15 minutes at room temperature in the dark. Wash the samples with Cell Staining Buffer one time and resuspend cells in […] Cell Staining Buffer for flow cytometry analysis. The data were recorded on BD Accuri™ C6 plus flow Cytometer and analyzed with FlowJo software.

[10] = tested on: A549; experiment: Tumor cell killing / cytotoxicity, A549 (FIG. 11b); format: cell-based; settings: with 10 μM of emricasan
[11] = tested on: MC38 cells; experiment: Tumor cell killing / cytotoxicity, MC38 (FIG. 11a); format: cell-based, murine
[12] = tested on: MiaPaca-2; experiment: Tumor cell killing / cytotoxicity, MiaPaca-2 (FIG. 11c); format: cell-based; settings: with 10 μM of emricasan
[13] = agent alone: simvastatin 10 μM, venetoclax 3 μM, doxorubicin 1 μM, docetaxel 10 μM

inhibition of caspase activity in tumor cells ([1]; 10 μM of emricasan, docetaxel-treated MiaPaca-2): fully inhibiting the caspase activity
inhibition of caspase activity in tumor cells ([2]; 10 μM of emricasan, docetaxel-treated A549): fully inhibiting the caspase activity
inhibition of caspase activity in tumor cells ([6]; 10 μM of emricasan, docetaxel-treated MC38 cells, FIG. 10a): fully inhibiting the caspase activity
concentration at which emricasan began to effectively inhibit the caspase-3 activity ([6]; tumor cells, FIG. 10a-c): ~1 µM
concentration at which emricasan reached the maximum activity (caspase-3 inhibition) ([6]; tumor cells, FIG. 10a-c): ~10 µM
SMILES: C[C@H](NC(=O)C(=O)Nc1ccccc1C(C)(C)C)C(=O)N[C@@H](CC(=O)O)C(=O)COc1c(F)c(F)cc(F)c1F [emricasan, (S)-3-((S)-2-(2-((2-(tert-butyl)phenyl)amino)-2-oxoacetamido)propanamido)-4-oxo-5-(2,3,5,6-tetrafluorophenoxy)pentanoic acid]
tumor control efficacy [3]: produced tumor control efficacy
tumor control efficacy [4]: produced tumor control efficacy
rejection of rechallenged tumor in cured mice ([5]; cured mice from the FIG. 15 study, rechallenged, FIG. 16): able to reject rechallenged tumor; also recorded: able to reject rechallenged tumors more efficiently
systemic tumor control, systemic emricasan added to intravenous docetaxel ([5]; docetaxel intravenous 50 mpk single dose, emricasan intraperitoneal 20 mpk b.i.d 3 days after docetaxel, FIG. 18): improved the systemic tumor control of intravenously administered docetaxel
distal tumor control ([5]; emricasan alone intratumorally 10 mpk q.d 4 days, FIG. 13): moderate
tumor control at the site of injection ([5]; emricasan alone intratumorally 10 mpk q.d 4 days, small MC38 tumors (~50 mm^3), FIG. 12): able control small MC38 tumors
number of cured mice ([5]; study of FIG. 15: docetaxel intravenous 30 mpk single dose, emricasan intratumoral 10 mpk q.d 4 days): 5 mice
IFNβ production in docetaxel treated MC38 cells ([7]; addition of 10 μM emricasan to docetaxel 10 μM, FIG. 9): significantly enhanced the IFNβ production
IFNβ production in doxorubicin treated MC38 cells ([7]; addition of 10 μM emricasan to doxorubicin 1 μM, FIG. 8): significantly enhanced the IFNβ production
IFNβ production in simvastatin treated MC38 cells ([7]; addition of 10 μM emricasan to simvastatin 10 μM, FIG. 7): significantly enhanced the IFNβ production
IFNβ production in MC38 cells ([7]; emricasan alone, FIG. 6): slightly enhanced the IFNβ production
PD-L1 expression on tumor cells [8]: upregulated the PD-L1 expression
apoptosis induced by docetaxel ([9]; addition of 10 μM emricasan to Docetaxel 10 μM, 24 hours, FIG. 5): significantly reduced the apoptosis
apoptosis induced by doxorubicin ([9]; addition of 10 μM emricasan to Doxorubicin 1 μM, 24 hours, FIG. 4): significantly reduced the apoptosis
apoptosis induced by simvastatin ([9]; addition of 10 μM emricasan to Simvastatin 10 μM, 24 hours, FIG. 2): significantly reduced the apoptosis
apoptosis induced by venetoclax ([9]; addition of 10 μM emricasan to Venetoclax 3 μM, 24 hours, FIG. 3): significantly reduced the apoptosis
apoptosis in MC38 cells ([9]; emricasan alone, 24 hours treatment, FIG. 1): partially blocked the apoptosis

docetaxel concentration activating caspase most efficiently ([1]; MiaPaca-2): ~1 µM
docetaxel concentration activating caspase most efficiently ([2]; A549): ~1 µM
docetaxel concentration activating caspase most efficiently ([6]; MC38 cells, 24 h, FIG. 10a): ~1 µM
SMILES: CC(=O)O[C@@]12CO[C@@H]1C[C@H](O)[C@@]1(C)C(=O)[C@H](O)C3=C(C)[C@@H](OC(=O)[C@H](O)[C@@H](NC(=O)OC(C)(C)C)c4ccccc4)C[C@@](O)([C@@H](OC(=O)c4ccccc4)[C@H]21)C3(C)C [docetaxel]
docetaxel concentration killing tumor cells more efficiently [10]: ~1 µM
docetaxel concentration killing tumor cells more efficiently ([11]; MC38, with 10 μM of emricasan, FIG. 11a): ~1 µM
cytotoxicity in several tumor cells ([11]; several tumor cells (FIG. 11a-c: MC38, A549, MiaPaca-2)): showed cytotoxicity
docetaxel concentration killing tumor cells more efficiently [12]: ~1 µM
tumor control, systemic docetaxel added to intratumoral emricasan ([5]; docetaxel 30 mpk single dose intraperitoneal (FIG. 14) or intravenous (FIG. 15), emricasan intratumoral 10 mpk q.d 3-4 days after docetaxel): improved tumor control of emricasan
IFNβ production in MC38 cells [7, 13]: slightly reduced IFNβ production
PD-L1 expression on tumor cells [8]: upregulating PD-L1 expression
apoptosis induction in MC38 cells ([9]; 24 hours): induced substantial apoptosis

SMILES: COc1cccc2c1C(=O)c1c(O)c3c(c(O)c1C2=O)C[C@@](O)(C(=O)CO)C[C@@H]3O[C@H]1C[C@H](N)[C@H](O)[C@H](C)O1 [doxorubicin]
IFNβ production in MC38 cells [7, 13]: slightly reduced IFNβ production
apoptosis induction in MC38 cells ([9]; 24 hours): induced substantial apoptosis
